# Legend:
# Assay type in all cases: in vivo, mouse
# [1] = test system: bleomycin-induced pulmonary fibrosis mice; assay: Bleomycin-induced pulmonary fibrosis mice, Example 31, Table 56; settings: untreated = 100%
# Outline: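 After treatment with test compound or vehicle alone, lungs of bleomycin-induced pulmonary fibrosis mice were harvested. Total RNA extracted and gene expression quantified by qRT-PCR.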
# [2] = test system: naturally aged C57BL6J mice; assay: SA-β-gal staining in organs of naturally aged mice, Example 21-3, Table 19; settings: staining area, untreated aged = 100
# Procedure: (§1) 22-month-old female C57BL6J mice (KRIBB Laboratory Animal Resource Center) were acclimated to the experimental environment for one week, after which the aged mice were randomly assigned to experimental and control groups. Eight-week-old, non-aged mice served as controls. LX-403 was mixed in a 10% ethanol solution of PEG400 and administered orally at a concentration of 25 mg/kg daily for 21 days, or administered to the skin, joints, or eyes at a concentration of 1 μM. LX-1801 was mixed in distilled water with 4% DMSO, 30% PEG300, and 5% Tween80 and administered to the skin, joints, or eyes at a concentration of 0.4 μM daily for 21 days. LX-2001 was mixed in PBS and administered to the skin, joints, or eyes at a concentration of […] daily for 21 days. LX-2002 was mixed in distilled water with 4% DMSO, 30% PEG300, and 5% Tween80 and administered to the skin, joints, or eyes at a concentration of 2 μM daily for 21 days. […] LX-2005 was mixed in distilled water with 4% DMSO, 30% PEG300, and 5% Tween80 and administered to the skin, joints, or eyes at a concentration of 90 μM daily for 21 days. LX-2007 was mixed in distilled water with 4% DMSO, 30% PEG300, and 5% Tween80 and administered to the skin, joints, or eyes at a concentration of 90 μM daily for 21 days. […] LX-3002 was mixed in distilled water with 4% DMSO, 30% PEG300, and 5% Tween80 and administered orally at a concentration of 10 mg/kg daily for 21 days. […] LX-5411 was mixed in 5% PBS and administered orally at a concentration of 10 mg/kg daily for 21 days or administered to the skin, joints, or eyes at a concentration of 3 μM. LX-5701 was mixed in PBS and administered orally at a concentration of 360 mg/kg daily for 21 days. LX-6807 was mixed in saline and administered intraperitoneally at a concentration of 1 mg/kg daily for 21 days. LX-2101 or LX-2102 was mixed in PBS solution with 5% DMSO and administered intraperitoneally at a concentration of 20 mg/kg or 10 mg/kg, respectively, daily for 21 days. The control group received only the solution in the same volume. After the end of drug administration, the methods described in each example below were performed.
# Mice were sacrificed, tissue sections were prepared from each organ, and stained for the senescence-associated marker (SA-β-gal) using the same method as in Example 7-3 of WO2023-085787 A1.
# [3] = test system: naturally aged C57BL6J mice; assay: SASP mRNA (MMP3, IL1B, MMP12, IL6, MMP13) in naturally aged mice, Example 21-6, Table 22; settings: untreated aged = 100%
# Procedure: as §1
# Using cDNA synthesized in the same manner as Example 7-2 of WO2023-085787 A1, qRT-PCR was performed and analyzed for the senescence-associated secretory factors (SASPs) MMP3, IL1B, MMP12, IL6, and MMP13. […] The mRNA levels of each factor after aging induction were calculated as 100% and compared with the mRNA levels of each factor after test compound treatment.
# [4] = test system: naturally aged C57BL6J mice; assay: Osteoclast marker mRNA (Ctsk, Ocstamp, Oscar, Rank, Trap) in femur of naturally aged mice, Example 21-14, Table 29; settings: left femur, untreated aged = 100%
# Procedure: as §1
# Senile osteoporosis is a metabolic bone disease characterized by decreased bone density and a high fracture risk. It occurs in both men and women with aging. The accumulation of senescent cells is known to contribute to osteoporosis by increasing bone resorption by osteoclasts and decreasing bone formation by osteoblasts through the senescence-associated secretory factor (SASP). RNA was extracted from the left femur of mice as described in Example 7-2 WO2023-085787 A1, and qRT-PCR was performed using the synthesized cDNA. […] The amount of each factor after aging was induced was calculated as 100% and compared with the amount of each factor after treatment with the test compound.
# [5] = test system: doxorubicin-induced aged C57BL6J mice; assay: Fatigue, weakness and weight loss in doxorubicin-aged mice, Example 22-7, Table 36; settings: for Grip Sterenght Test Strength / Open Field Test Time in Center / Wire Hanging Test Time: amount after aging calculated as 100%; for Mean Body Weight: untreated 20.8 (±1.7)
# Procedure: Eight-week-old male C57BL6J mice (KRIBB Laboratory Animal Resource Center) were acclimated to the experimental environment for one week. […] The aging-induced mice were randomly assigned to experimental and control groups. […] The control group received only the solution in the same volume. After the end of drug administration, the methods described in each example below were performed.
# The amount of each evaluation after aging was calculated as 100% and compared with the amount of each evaluation after test compound treatment.
Compound,Lung p16 mRNA [1],Col1a1 mRNA [1],Ctsk mRNA (%) [4],Ocstamp mRNA (%) [4],Oscar mRNA (%) [4],Rank mRNA (%) [4],Trap mRNA (%) [4],Grip Sterenght Test Strength [5],Wire Hanging Test Time [5],Mean Body Weight [5],also measured
O=C(C(C[N+](=O)[O-])=NO)N1CCN(C(c2ccc(Cl)cc2)c2ccc(Cl)cc2)CC1 [LX-403],32 (±1.4) %,44 (±3.1) %,,,,,,,,,
S=C(N/N=C1\CCCc2cccnc21)N1CCN(c2ccccn2)CC1 [LX-801],48 (±4.8) %,43 (±10.6) %,,,,,,,,,
"C[C@@H]1CC[C@@]23C[C@H](O)C(=O)[C@@]2(O)[C@]1(C)[C@H](OC(=O)CCl)C[C@@H](C1=CCn2c(=O)n(-c4ccccc4)c(=O)n2C1)[C@@H]3C [LX-1801, (2S,3aS,4S,5R,7R,8S,8aS,11R)-7-(1,3-Dioxo-2-phenyl-2,3,5,8-tetrahydro-1H-[1,2,4]triazolo[1,2-a]pyridazin-6-yl)-2,3a-dihydroxy-4,8,11-trimethyl-3-oxooctahydro-1H-4,8a-propanoazulen-5-yl 2-Chloroacetate]",53 (±13.7) %,38 (±20.8) %,,,,,,,,,
"CC1(C)CC[C@]2(NC(=O)C(C)(F)F)CC[C@]3(C)[C@H](C(=O)C=C4[C@@]5(C)C=C(C#N)C(=O)C(C)(C)[C@@H]5CC[C@]43C)[C@@H]2C1 [LX-2101, Omaveloxolone]",,,61 (±12.1) %,69 (±10.3) %,79 (±5.6) %,75 (±2.7) %,50 (±14.2) %,,,,"SA-β-gal (%), Kidney [2]: 51 (±12.5) %; SA-β-gal (%), Liver [2]: 71 (±5.5) %; SA-β-gal (%), Lung [2]: 72 (±8.8) %; SA-β-gal (%), Skin [2]: 75 (±11.8) %; SA-β-gal (%), eWAT [2]: 32 (±16.2) %; MMP13 mRNA (%), Eye [3]: 35%; IL1β mRNA (%), Kidney [3]: 73%; MMP13 mRNA (%), Knee joint [3]: 46%; MMP3 mRNA (%), Liver [3]: 45%; MMP12 mRNA (%), Lung [3]: 58%; IL6 mRNA (%), Muscle [3]: 69%; MMP3 mRNA (%), Skin [3]: 81%; MMP12 mRNA (%), Skin [3]: 82%; MMP13 mRNA (%), Skin [3]: 38%"
"COC(=O)[C@]12CCC(C)(C)C[C@H]1[C@H]1C(=O)C=C3[C@@]4(C)C=C(C#N)C(=O)C(C)(C)[C@@H]4CC[C@@]3(C)[C@]1(C)CC2 [LX-2102, Bardoxolone methyl]",,,,,,,,,,,"SA-β-gal (%), Kidney [2]: 62 (±8.6) %; SA-β-gal (%), Liver [2]: 68 (±6.8) %; SA-β-gal (%), Lung [2]: 59 (±14.6) %; SA-β-gal (%), Skin [2]: 77 (±5.4) %; SA-β-gal (%), eWAT [2]: 49 (±9.7) %; MMP13 mRNA (%), Eye [3]: 71%; IL1β mRNA (%), Kidney [3]: 68%; MMP13 mRNA (%), Knee joint [3]: 77%; MMP3 mRNA (%), Liver [3]: 56%; MMP12 mRNA (%), Lung [3]: 66%; IL6 mRNA (%), Muscle [3]: 81%; MMP3 mRNA (%), Skin [3]: 83%; MMP12 mRNA (%), Skin [3]: 78%; MMP13 mRNA (%), Skin [3]: 68%"
"CCCC\C=C/C=C/C=C\CCCCCCCC(=O)O [LX-2707, Punicic acid]",,,64 (±8.6) %,73 (±3.2) %,54 (±3.4) %,67 (±3.4) %,51 (±5.2) %,128 (±5.7) %,192 (±12.7) %,22.4 (±2.1) g,Open Field Test Time in Center [5]: 232 (±33.6) %
"COC(=O)[C@H]1Cc2c([nH]c3ccccc23)[C@H](c2ccc(S(C)(=O)=O)cc2)N1C(=O)CCl [LX-5401, methyl (1S,3R)-2-(2-chloroacetyl)-1-(4-(methylsulfonyl)phenyl)-2,3,4,9-tetrahydro-1H-pyrido[3,4-b]indole-3-carboxylate]",67 (±8.1) %,59 (±12.8) %,,,,,,,,,
C#CC(=O)N1[C@@H](CCCC)Cc2cc(OC)ccc2[C@@H]1c1ccc(NC23CC4CC(CC(C4)C2)C3)cc1 [LX-5411],61 (±13.2) %,44 (±11.1) %,,,,,,,,,
O=C1C2CCN(CC2)C1CNC(=O)C(F)(F)F (centres unmarked) [LX-5701],,,57 (±13.0) %,70 (±6.7) %,72 (±7.2) %,68 (±10.4) %,63 (±18.4) %,117 (±6.9) %,139 (±8.2) %,23.0 (±2.8) g,"SA-β-gal (%), Kidney [2]: 77 (±8.1) %; SA-β-gal (%), Liver [2]: 65 (±4.8) %; SA-β-gal (%), Lung [2]: 62 (±9.6) %; SA-β-gal (%), Skin [2]: 76 (±6.9) %; SA-β-gal (%), eWAT [2]: 48 (±3.9) %; MMP13 mRNA (%), Eye [3]: 71%; IL1β mRNA (%), Kidney [3]: 58%; MMP13 mRNA (%), Knee joint [3]: 61%; MMP3 mRNA (%), Liver [3]: 59%; MMP12 mRNA (%), Lung [3]: 70%; IL6 mRNA (%), Muscle [3]: 38%; MMP3 mRNA (%), Skin [3]: 79%; MMP12 mRNA (%), Skin [3]: 71%; MMP13 mRNA (%), Skin [3]: 62%; Open Field Test Time in Center [5]: 192 (±24.3) %"
"Cc1cccc([C@H](C)c2cnc[nH]2)c1C [LX-6807, Dexmedetomidine]",,,42 (±2.7) %,53 (±5.1) %,37 (±2.0) %,57 (±3.9) %,48 (±2.1) %,137 (±6.3) %,209 (±14.5) %,23.2 (±2.7) g,Open Field Test Time in Center [5]: 249 (±34.1) %
Tocofersolan [LX-3001],,,67 (±7.2) %,75 (±3.3) %,61 (±4.7) %,56 (±6.3) %,78 (±6.8) %,120 (±9.3) %,127 (±13.3) %,21.2 (±1.3) g,

# Reference: patent US20260306460A1, “COMPOSITION FOR REMOVING AND INHIBITING SENESCENT CELLS, AND USES THEREOF” (LIFECEUTIX CO., LTD., priority 2023, published 2026)
